Measurements from PubChem BioAssay (NCI).
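Briefly, cells in 96-well plates were exposed to five compound concentrations for 48 h, and endpoints were estimated by linear interpolation. TGI denotes the concentration required for complete inhibition of growth.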

Assays:
Test in all cases: NCI-60 cell line screen, 48 h
M14 melanoma = system: M14 melanoma
HCT-15 colon = system: HCT-15 colon
UACC-62 melanoma = system: UACC-62 melanoma
UO-31 renal = system: UO-31 renal
RXF 393 renal = system: RXF 393 renal
OVCAR-3 ovarian = system: OVCAR-3 ovarian
SW-620 colon = system: SW-620 colon
786-0 renal = system: 786-0 renal
MCF7 breast = system: MCF7 breast
K-562 leukemia = system: K-562 leukemia
MALME-3M melanoma = system: MALME-3M melanoma
HOP-62 NSCLC = system: HOP-62 NSCLC
LOX IMVI melanoma = system: LOX IMVI melanoma
IGROV1 ovarian = system: IGROV1 ovarian
HT29 colon = system: HT29 colon
SK-MEL-5 melanoma = system: SK-MEL-5 melanoma
NCI-H522 lung = system: NCI-H522 lung

Structure (SMILES) | TGI (M14 melanoma) [µM] | TGI (HCT-15 colon) [µM] | TGI (UACC-62 melanoma) [µM] | TGI (UO-31 renal) [µM] | TGI (RXF 393 renal) [µM] | TGI (OVCAR-3 ovarian) [µM] | TGI (SW-620 colon) [µM] | TGI (786-0 renal) [µM] | TGI (MCF7 breast) [µM] | TGI (K-562 leukemia) [µM] | TGI (MALME-3M melanoma) [µM] | TGI (HOP-62 NSCLC) [µM] | TGI (LOX IMVI melanoma) [µM] | TGI (IGROV1 ovarian) [µM] | TGI (HT29 colon) [µM] | TGI (SK-MEL-5 melanoma) [µM] | TGI (NCI-H522 lung) [µM]
CCCN(CCCc1ccccc1)CCc1ccc2[nH]c(=S)[nH]c2c1 | 40 | > 100 | 74.4 | 51.4 | 76.1 | > 100 | > 100 | 25.4 | > 100 | 29.3 | 25.5 | > 100 | > 100 | 79.9 | – | – | –
CC[C@@H]1CC[C@@H]2[C@H](CC[C@]3(C)[C@@H](OS(=O)(=O)c4ccc(C)cc4)CC[C@@H]23)[C@H]1COS(=O)(=O)c1ccc(C)cc1 | > 100 | > 100 | – | > 100 | > 100 | – | > 100 | > 100 | > 100 | > 100 | > 100 | – | > 100 | > 100 | > 100 | > 100 | –
C=CCC(N(C)C(=O)[C@H](Cc1ccccc1)NC(=O)OCc1ccccc1)P(=O)(Oc1ccccc1)Oc1ccccc1 (stereo partly specified) | > 100 | – | > 100 | > 100 | > 100 | > 100 | > 100 | > 100 | – | > 100 | > 100 | > 100 | > 100 | > 100 | > 100 | – | > 100
Cc1ccc(NC2=CC(=O)C(NO)c3ccccc32)cc1 (stereo unspecified) | 11.4 | 10.4 | 4 | 12.2 | 12.7 | 5.57 | > 100 | 17.4 | 10.8 | – | – | 14.6 | 11.7 | 4.6 | 17.1 | 2.92 | –
CCOC(=O)/C=C/n1c2ccccc2c(=O)c2ccccc21 | > 100 | > 100 | > 100 | > 100 | > 100 | > 100 | > 100 | > 100 | – | > 100 | > 100 | > 100 | > 100 | > 100 | > 100 | – | > 100
CC(=O)O[C@H]1C(=O)[C@@]2(C)[C@H]([C@H](OC(=O)c3ccccc3)[C@]3(O)C[C@H](OC(=O)[C@H](O)[C@@H](NC(=O)c4cccc(N=[N+]=[N-])c4)c4ccccc4)C(C)=C1C3(C)C)[C@]1(OC(C)=O)CO[C@@H]1C[C@@H]2O | 3.23 | > 25 | > 15.9 | > 25 | 0.897 | – | > 25 | > 25 | > 25 | 0.0242 | > 25 | – | > 25 | > 25 | > 6.26 | 3.11 | –
COC(=O)CC1NC(=O)[C@@H]1C(C)O (stereo partly specified) | > 100 | > 100 | > 100 | > 100 | > 100 | > 100 | > 100 | > 100 | – | > 100 | > 100 | > 100 | > 100 | > 100 | > 100 | > 100 | –
CN1c2ccccc2N(C(=O)c2ccc(Cl)cc2)C(CC(=O)O)c2cccn21 (stereo unspecified) | > 100 | > 100 | > 100 | > 100 | > 100 | > 100 | > 100 | > 100 | – | > 100 | > 100 | > 100 | > 100 | > 100 | > 100 | > 100 | > 100
CCC12CCCN(Cc3ccccc3)C1c1c(n(C)c3ccccc13)C(C(=O)OC)C2 (stereo unspecified) | – | > 239 | > 239 | – | > 239 | 170 | > 239 | > 239 | – | > 239 | > 239 | > 239 | > 239 | > 239 | > 239 | 97.1 | 127
Cc1cccc(N(C(=O)Nc2ccc(Cl)c(Cl)c2)C2=NCC(C)S2)c1 (stereo unspecified) | > 100 | > 100 | – | > 100 | – | > 100 | > 100 | > 100 | 58.8 | > 100 | > 100 | > 100 | 86.5 | > 100 | > 100 | 45.8 | –
N#C/C(c1nc2ccccc2[nH]1)=c1\s/c(=C/c2ccc(Cl)cc2)c(=O)n1-c1ccccc1 | > 100 | > 100 | > 100 | > 100 | – | > 100 | > 100 | > 100 | – | > 100 | > 100 | > 100 | > 100 | > 100 | – | > 100 | > 100
CCCCCCC(=O)O[C@H]1CC[C@H]2[C@@H]3CCC4C/C(=N/NC(=O)c5cccc6c(=O)c7ccccc7[nH]c56)C=C(C)[C@]4(C)[C@H]3CC[C@]12C (stereo partly specified) | > 25 | > 25 | > 25 | > 25 | – | > 25 | > 25 | > 25 | > 25 | > 25 | > 25 | > 25 | > 25 | > 25 | > 25 | > 25 | –
CC1CN(c2ccc(Cl)cc2)CC(C)OC(=O)O1 (stereo unspecified) | > 100 | > 100 | > 100 | > 100 | > 100 | > 100 | > 100 | > 100 | – | > 100 | > 100 | > 100 | > 100 | > 100 | > 100 | > 100 | > 100
Nc1nc(SCc2ccc([N+](=O)[O-])cc2)nc2c1ncn2C1OC(CO)C(O)C1O (stereo unspecified) | – | > 100 | – | > 100 | > 100 | > 100 | > 100 | > 100 | – | > 100 | > 100 | > 100 | > 100 | > 100 | > 100 | > 100 | > 100
Cc1ccc(N(C(=O)Nc2ccccc2)C2=NCC(C)S2)cc1C (stereo unspecified) | 28.4 | 44.5 | – | 80.7 | – | 32 | 62.9 | 46.6 | 71.9 | > 100 | 40.7 | > 100 | 30.3 | 89.8 | 41.9 | 30.7 | –
